{"source": "ChEMBL document CHEMBL4828751", "about": "“Discovery of novel tubulin/HDAC dual-targeting inhibitors with strong antitumor and antiangiogenic potency” (Eur J Med Chem, 2021)", "key": {"[1]": {"test_system": "MGC-803", "assay": "Induction of apoptosis in human MGC-803 cells assessed as viable cells at 30 nM measured after 48 hrs by Annexin V-APC/PI double staining based flow cytometry assay (reference value: 92.1 %)", "type": "functional, cell-based"}, "[2]": {"test_system": "MGC-803", "assay": "Induction of cell cycle arrest in human MGC-803 cells assessed as accumulation at G2/M phase incubated for 24 hrs by propidium iodide staining based flow cytometry", "type": "functional", "settings": "dose 7.5-30 nM"}, "[3]": {"test_system": "MGC-803", "assay": "Down regulation of Pcdc2 expression in human MGC-803 cells at 7.5 to 30 nM measured after 24 hrs by Western blot analysis", "type": "functional, cell-based", "settings": "dose 7.5-30 nM"}, "[4]": {"test_system": "MGC-803", "assay": "Induction of apoptosis in human MGC-803 cells assessed as increase in Caspase-7 expression incubated for 24 hrs by Western blot analysis", "type": "functional, cell-based", "settings": "dose 7.5-30 nM"}, "[5]": {"test_system": "MGC-803", "assay": "Induction of apoptosis in human MGC-803 cells assessed as increase in cleaved Caspase-7 expression incubated for 24 hrs by Western blot analysis", "type": "functional, cell-based", "settings": "dose 7.5-30 nM"}, "[6]": {"test_system": "MGC-803", "assay": "Induction of apoptosis in human MGC-803 cells assessed as early apoptotic cells at 15 nM measured after 48 hrs by Annexin V-APC/PI double staining based flow cytometry assay (reference value: 1.31 %)", "type": "functional, cell-based"}, "[7]": {"test_system": "MGC-803", "assay": "Down regulation of p21 expression in human MGC-803 cells at 7.5 to 30 nM measured after 24 hrs by Western blot analysis", "type": "functional, cell-based", "settings": "dose 7.5-30 nM"}, "[8]": {"test_system": "MGC-803", "assay": "Induction of ROS generation in human MGC-803 cells assessed as intracellular ROS level at 30 nM incubated for 24 hrs by DCFH-DA staining based flow cytometric analysis (reference value: 2.72 %)", "type": "functional"}, "[9]": {"test_system": "MGC-803", "assay": "Induction of apoptosis in human MGC-803 cells assessed as increase in cleaved Caspase-3 expression incubated for 24 hrs by Western blot analysis", "type": "functional, cell-based", "settings": "dose 7.5-30 nM"}, "[10]": {"test_system": "MGC-803", "assay": "Induction of mitochondrial membrane potential loss in human MGC-803 cells at 30 nM after 48 hrs by JC-1 staining based flow cytometric analysis (reference value: 86 %)", "type": "functional"}, "[11]": {"test_system": "MGC-803", "assay": "Antiinvasive activity in human MGC-803 cells assessed as decrease in number of migrated MGC-803 cells at 7.5 to 30 nM measured after 48 hrs by transwell assay", "type": "functional, cell-based", "settings": "dose 7.5-30 nM"}, "[12]": {"test_system": "HUVEC", "assay": "Antivascular activity against HUVEC assessed as inhibition of tube formation at 5 to 20 nM incubated for 48 hrs by […]", "type": "functional, cell-based", "settings": "Homo sapiens, dose 5-20 nM"}, "[13]": {"test_system": "MGC-803", "assay": "Inhibition of cell migration in human MGC-803 cells assessed as decrease in wound healing rate at 7.5 to 30 nM measured after 48 hrs by wound healing assay", "type": "functional, cell-based", "settings": "dose 7.5-30 nM"}, "[14]": {"test_system": "MGC-803", "assay": "Induction of apoptosis in human MGC-803 cells assessed as viable cells at 15 nM measured after 48 hrs by Annexin V-APC/PI double staining based flow cytometry assay (reference value: 92.1 %)", "type": "functional, cell-based"}, "[15]": {"test_system": "MGC-803", "assay": "Induction of cell cycle arrest in human MGC-803 cells assessed as accumulation at G2/M phase at 7.5 nM incubated for 24 hrs by propidium iodide staining based flow cytometry (reference value: 37.03 %)", "type": "functional"}, "[16]": {"biological_target": "Tubulin", "assay": "Inhibition of tubulin polymerization (unknown origin) measured after 1 min by fluorescence assay", "type": "protein-complex assay, Homo sapiens", "settings": "read-out: IC50"}, "[17]": {"test_system": "MGC-803", "assay": "Antitumor activity against CMTPX- labeled human MGC-803 cells xenografted in zebrafish assessed as inhibition of tumor growth measured after 72 hrs by fluorescence microscopic analysis", "type": "functional, cell-based", "settings": "dose 25-100 nM"}, "[18]": {"test_system": "MGC-803", "assay": "Induction of apoptosis in human MGC-803 cells assessed as early apoptotic cells at 7.5 nM measured after 48 hrs by Annexin V-APC/PI double staining based flow cytometry assay (reference value: 1.31 %)", "type": "functional, cell-based"}, "[19]": {"test_system": "HeLa", "assay": "Antiproliferative activity against human HeLa cells assessed as cell growth inhibition after 72 hrs by SRB assay", "type": "functional, cell-based"}, "[20]": {"test_system": "THP-1", "assay": "Cytotoxicity against human THP-1 cells assessed as reduction in cell viability", "type": "cell-based"}, "[21]": {"test_system": "L02", "assay": "Cytotoxicity against human L02 cells assessed as reduction in cell viability", "type": "cell-based"}, "[22]": {"test_system": "MGC-803", "assay": "Induction of cell cycle arrest in human MGC-803 cells assessed as accumulation at G2/M phase at 30 nM incubated for 24 hrs by propidium iodide staining based flow cytometry (reference value: 37.03 %)", "type": "functional"}, "[23]": {"test_system": "MGC-803", "assay": "Induction of apoptosis in human MGC-803 cells assessed as late apoptotic cells at 30 nM measured after 48 hrs by Annexin V-APC/PI double staining based flow cytometry assay (reference value: 1.05 %)", "type": "functional, cell-based"}, "[24]": {"test_system": "MGC-803", "assay": "Induction of ROS generation in human MGC-803 cells assessed as intracellular ROS level at 7.5 nM incubated for 24 hrs by DCFH-DA staining based flow cytometric analysis (reference value: 2.72 %)", "type": "functional"}, "[25]": {"organism": "Danio rerio", "assay": "Antiangiogenic activity in 30hpf transgenic Tg(flk:EGFP) zebra fish embryos assessed as reduction in number of intersegmental vessels by confocal fluorescence microscopy analysis", "type": "functional, organism-based", "settings": "Embryo, dose 0.1-0.6 µM"}, "[26]": {"test_system": "U-937", "assay": "Antiproliferative activity against human U-937 cells assessed as cell growth inhibition after 72 hrs by CCK8 assay", "type": "functional, cell-based", "settings": "U-937, 72 h"}, "[27]": {"test_system": "MGC-803", "assay": "Induction of G2/M phase cell cycle arrest in human MGC-803 cells assessed as upregulation of cyclinB1 protein expression at 7.5 to 30 nM measured after 48 hrs by western blot analysis", "type": "functional, cell-based", "settings": "dose 7.5-30 nM"}, "[28]": {"test_system": "MGC-803", "assay": "Induction of apoptosis in human MGC-803 cells assessed as necrotic cells at 15 nM measured after 48 hrs by Annexin V-APC/PI double staining based flow cytometry assay (reference value: 0.57 %)", "type": "functional, cell-based"}, "[29]": {"test_system": "MGC-803", "assay": "Induction of ROS generation in human MGC-803 cells assessed as intracellular ROS level at 15 nM incubated for 24 hrs by DCFH-DA staining based flow cytometric analysis (reference value: 2.72 %)", "type": "functional"}, "[30]": {"test_system": "MGC-803", "assay": "Induction of mitochondrial membrane potential loss in human MGC-803 cells at 7.5 nM after 48 hrs by JC-1 staining based flow cytometric analysis (reference value: 86 %)", "type": "functional"}, "[31]": {"test_system": "MGC-803", "assay": "Induction of apoptosis in human MGC-803 cells assessed as necrotic cells at 30 nM measured after 48 hrs by Annexin V-APC/PI double staining based flow cytometry assay (reference value: 0.57 %)", "type": "functional, cell-based"}, "[32]": {"test_system": "MGC-803", "assay": "Induction of apoptosis in human MGC-803 cells assessed as increase in Caspase-3 expression incubated for 24 hrs by Western blot analysis", "type": "functional, cell-based", "settings": "dose 7.5-30 nM"}, "[33]": {"test_system": "MGC-803", "assay": "Induction of ROS generation in human MGC-803 cells assessed as increase in intracellular ROS level incubated for 24 hrs by DCFH-DA staining based flow cytometric analysis", "type": "functional, cell-based", "settings": "dose 7.5-30 nM"}, "[34]": {"test_system": "HEK-293T", "assay": "Cytotoxicity against human HEK293T cells assessed as reduction in cell viability", "type": "cell-based"}, "[35]": {"test_system": "MCF7", "assay": "Antiproliferative activity against human MCF7 cells assessed as cell growth inhibition after 72 hrs by SRB assay", "type": "functional, cell-based", "settings": "MCF7, 72 h"}, "[36]": {"test_system": "MGC-803", "assay": "Induction of cell cycle arrest in human MGC-803 cells assessed as accumulation at S phase at 30 nM incubated for 24 hrs by propidium iodide staining based flow cytometry (reference value: 17.3 %)", "type": "functional"}, "[37]": {"test_system": "MGC-803", "assay": "Induction of apoptosis in human MGC-803 cells assessed as increase in Caspase-9 expression incubated for 24 hrs by Western blot analysis", "type": "functional, cell-based", "settings": "dose 7.5-30 nM"}, "[38]": {"test_system": "A549", "assay": "Antiproliferative activity against human A549 cells assessed as cell growth inhibition after 72 hrs by SRB assay", "type": "functional, cell-based", "settings": "A549, 72 h"}}, "note": "Active and inactive are the calls of the source. The calls are words filed in the database; no cut-off is given here."}
{"smiles": "COc1ccc(/C=C\\c2cc(OC)c(OC)c(OC)c2)cc1/C=C/C(=O)Nc1ccccc1N", "values": [{"measurement": "Activity", "setting": "[1]", "value": "Active"}, {"measurement": "Activity", "setting": "[2]", "value": "Dose-Dependent Effect"}, {"measurement": "Activity", "setting": "[3]", "value": "Active"}, {"measurement": "Activity", "setting": "[4]", "value": "Dose-Dependent Effect"}, {"measurement": "Activity", "setting": "[5]", "value": "Dose-Dependent Effect"}, {"measurement": "Activity", "setting": "[6]", "value": "Active"}, {"measurement": "Activity", "setting": "[7]", "value": "Active"}, {"measurement": "Activity", "setting": "[8]", "value": 51.4, "unit": "%"}, {"measurement": "Activity", "setting": "[9]", "value": "Dose-Dependent Effect"}, {"measurement": "Activity", "setting": "[10]", "value": 34.5, "unit": "%"}, {"measurement": "Activity", "setting": "[11]", "value": "Active"}, {"measurement": "Activity", "setting": "[12]", "value": "Active"}, {"measurement": "inhibition", "setting": "[13]", "value": "Active"}, {"measurement": "Activity", "setting": "[14]", "value": "Active"}, {"measurement": "Activity", "setting": "[15]", "value": "Dose-Dependent Effect"}, {"measurement": "Activity", "setting": "[15]; record 2", "value": 43.82, "unit": "%"}, {"measurement": "IC50", "setting": "[16]", "value": 1000, "unit": "nM"}, {"measurement": "inhibition", "setting": "[17]", "value": "Dose-Dependent Effect"}, {"measurement": "Activity", "setting": "[18]", "value": "Active"}, {"measurement": "IC50", "setting": "[19]", "value": 50, "unit": "nM"}, {"measurement": "IC50", "setting": "[20]", "value": 195, "unit": "nM"}, {"measurement": "IC50", "setting": "[21]", "value": 556, "unit": "nM"}, {"measurement": "Activity", "setting": "[22]", "value": "Dose-Dependent Effect"}, {"measurement": "Activity", "setting": "[22]; record 2", "value": 84.19, "unit": "%"}, {"measurement": "Activity", "setting": "[23]", "value": "Active"}, {"measurement": "Activity", "setting": "[24]", "value": 17.4, "unit": "%"}, {"measurement": "Activity", "setting": "[25]", "value": "Dose-Dependent Effect"}, {"measurement": "IC50", "setting": "[26]", "value": 305, "unit": "nM"}, {"measurement": "Activity", "setting": "[27]", "value": "Active"}, {"measurement": "Activity", "setting": "[28]", "value": "Active"}, {"measurement": "Activity", "setting": "[29]", "value": 26, "unit": "%"}, {"measurement": "Activity", "setting": "[30]", "value": 82.9, "unit": "%"}, {"measurement": "Activity", "setting": "[31]", "value": "Active"}, {"measurement": "Activity", "setting": "[32]", "value": "Dose-Dependent Effect"}, {"measurement": "Activity", "setting": "[33]", "value": "Dose-Dependent Effect"}, {"measurement": "IC50", "setting": "[34]", "value": 352, "unit": "nM"}, {"measurement": "IC50", "setting": "[35]", "value": 23, "unit": "nM"}, {"measurement": "Activity", "setting": "[36]", "value": 13.6, "unit": "%"}, {"measurement": "Activity", "setting": "[37]", "value": "Dose-Dependent Effect"}, {"measurement": "IC50", "setting": "[38]", "value": 191, "unit": "nM"}]}
